{"source": "ChEMBL document CHEMBL1139501", "about": "“Synthesis and biological evaluation of benzodioxanylpiperazine derivatives as potent serotonin 5-HT(1A) antagonists: the discovery of Lecozotan” (J Med Chem, 2005)", "key": {"[1]": {"biological_target": "T1, 5-hydroxytryptamine receptor 1A (Homo sapiens, UniProt P08908)", "T1 sequence (P08908 whole entry)": "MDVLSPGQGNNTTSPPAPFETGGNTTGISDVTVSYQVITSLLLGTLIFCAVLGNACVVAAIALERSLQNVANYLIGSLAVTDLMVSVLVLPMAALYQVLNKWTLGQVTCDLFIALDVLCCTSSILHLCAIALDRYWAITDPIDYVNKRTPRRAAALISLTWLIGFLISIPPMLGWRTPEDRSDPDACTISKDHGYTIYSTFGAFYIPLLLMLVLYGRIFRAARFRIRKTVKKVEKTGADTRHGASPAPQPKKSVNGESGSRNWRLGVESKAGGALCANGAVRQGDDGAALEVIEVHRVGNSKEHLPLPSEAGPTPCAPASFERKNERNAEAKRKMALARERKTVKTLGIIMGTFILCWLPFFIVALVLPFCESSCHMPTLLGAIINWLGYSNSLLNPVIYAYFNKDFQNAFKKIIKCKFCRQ", "experiment": "biochemical"}, "[2]": {"tested_on": "Rattus norvegicus", "experiment": "Effective dose on the 8-OH-DPAT induced response at 3 mg/kg sc in presence of 8-OH-DPAT (Effective dose value for 8-OH-DPAT = 0.18)", "format": "functional", "settings": "route subcutaneous"}, "[3]": {"biological_target": "T1, 5-hydroxytryptamine receptor 1A"}, "[4]": {"tested_on": "Rattus norvegicus", "experiment": "Effective dose on the 8-OH-DPAT induced response at 3 mg/kg sc in presence of 8-OH-DPAT (Effective dose value for 8-OH-DPAT = 0.25)", "format": "functional", "settings": "route subcutaneous"}, "[5]": {"biological_target": "T1, 5-hydroxytryptamine receptor 1A", "remark": "listed apart in the source"}, "[6]": {"tested_on": "Rattus norvegicus", "experiment": "Effective dose on the 8-OH-DPAT induced response at 3 mg/kg sc in presence of 8-OH-DPAT (Effective dose value for 8-OH-DPAT = 0.32)", "format": "functional", "settings": "route subcutaneous"}, "[7]": {"tested_on": "Rattus norvegicus", "experiment": "Effective dose on the 8-OH-DPAT induced response at 3 mg/kg sc in presence of 8-OH-DPAT (Effective dose value for 8-OH-DPAT = 0.17)", "format": "functional", "settings": "route subcutaneous"}}, "note": "pIC50, pKi: −log10 of the molar value."}
{"smiles": "C[C@@H](CN(C(=O)c1ccc([N+](=O)[O-])cc1)c1ccccn1)N1CCN(c2cccc3c2OCCO3)CC1", "values": [{"measurement": "pKi", "setting": "[1]", "value": 8.47}]}
{"smiles": "C[C@H](CN(C(=O)c1ccc(C#N)cc1)c1ccccn1)N1CCN(c2cccc3c2OCCO3)CC1", "note": "[LECOZOTAN]", "values": [{"measurement": "ED50", "setting": "[2]", "value": 3.68, "unit": "mg/kg"}, {"measurement": "pIC50", "setting": "[3]", "value": 7.38}]}
{"smiles": "C[C@H](CN(C(=O)c1ccc([N+](=O)[O-])cc1)c1ccccn1)N1CCN(c2cccc3c2OCCO3)CC1", "values": [{"measurement": "ED50", "setting": "[4]", "value": 3.19, "unit": "mg/kg"}, {"measurement": "pIC50", "setting": "[5]", "value": 8.37}, {"measurement": "pIC50", "setting": "[3]", "value": 7.63}, {"measurement": "pKi", "setting": "[1]", "value": 9.00}]}
{"smiles": "C[C@@H](CN(C(=O)c1ccc(C#N)cc1)c1ccccn1)N1CCN(c2cccc3c2OCCO3)CC1", "values": [{"measurement": "pKi", "setting": "[1]", "value": 8.04}]}
{"smiles": "C[C@H](CN(C(=O)c1ccc(C(F)(F)F)cc1)c1ccccn1)N1CCN(c2cccc3c2OCCO3)CC1", "values": [{"measurement": "ED50", "setting": "[6]", "value": 0.94, "unit": "mg/kg"}, {"measurement": "pIC50", "setting": "[5]", "value": 8.21}, {"measurement": "pIC50", "setting": "[3]", "value": 7.49}, {"measurement": "pKi", "setting": "[1]", "value": 8.72}]}
{"smiles": "C[C@@H](CN(C(=O)c1ccc(C(F)(F)F)cc1)c1ccccn1)N1CCN(c2cccc3c2OCCO3)CC1", "values": [{"measurement": "pKi", "setting": "[1]", "value": 8.07}]}
{"smiles": "C[C@H](CN(C(=O)c1ccc(Cl)cc1)c1ccccn1)N1CCN(c2cccc3c2OCCO3)CC1", "values": [{"measurement": "ED50", "setting": "[7]", "value": 1.82, "unit": "mg/kg"}]}
